Values joined by “and” are separate entries in the source; they are usually repeats but may differ in a detail not shown here. Equal entries are not always repeated.
Tested on: 996289-038-R-J1-PDC spheroid viability
Assay: Anticancer human tumor 996289-038-R-J1-PDC patient-derived colon adenocarcinoma cell line growth inhibition [PI3K]
Conditions: spheroids with HUVEC and MSC; for viability, T/C: stronger effect = lower value
Text: Combinatorial screen of targeted agents with the PI3K inhibitors inavolisib, alpelisib, duvelisib, and copanlisib in multi-cell type tumor spheroids
A high-throughput screen of multi-cell type tumor spheroids was designed to identify active combinations of targeted small molecules and PI3K pathway inhibitors. Complex spheroids include a stromal component modeled by human endothelial cells (HUVEC) and fibroblasts modeled by human mesenchymal stem cells (MSCs). The concentration ranges selected for each drug and investigational agent were based upon clinically achievable concentrations if the clinical Cmax of the agent was known.
Compounds. The drugs and investigational agents: inavolisib (NSC800729), alpelisib (NSC765974), duvelisib (NSC772469), copanlisib (NSC816437), ipatasertib (NSC767898), afuresertib (NSC778305), talazoparib (NSC767125), sapanisertib (NSC764658), selumetinib (NSC741078), tovorafenib (DAY101, NSC766906), vemurafenib (NSC761431), ravoxertinib (NSC781343), sotorasib (NSC818433), MRTX1133 (NSC 836407), abemaciclib (NSC 768073), palbociclib (NSC758247), venetoclax (NSC 766270), SY5609 (NSC837396), enzalutamide (NSC755605), and darolutamide (NSC825331), were obtained from the National Cancer Institute (NCI) Developmental Therapeutics Program Chemical Repository. The FDA-approved anticancer drug set is available from the NCI Developmental Therapeutics Program. […] The stock solutions were prepared in dimethyl sulfoxide (DMSO, Sigma-Aldrich, St. Louis, MO, cat. D2650) at 800-fold the tested concentration and stored at -70 degrees C prior to their use. All drugs and investigational agents were tested over a range starting from a high concentration at or near the clinical Cmax and decreasing in half-log increments. If the clinical Cmax for an agent had not been determined, the highest concentration tested was 10 microM.
Cell Culture. All cells were maintained in an incubator at 37 degrees C and 5% CO2 with 95% humidity. The PDC lines were cultured according to standard operating procedures established by the NCI PDMR (https://pdmr.cancer.gov/sops/default.htm). All PDCs were thawed and cultured in Matrigel-coated flasks prepared with a working solution of 1X Ham's F-12 nutrient mix, without supplementation (Invitrogen, Waltham, MA, cat. 11765054), 100 U/mL penicillin-streptomycin (Invitrogen, cat. 15140122), and 2.5% Matrigel (Corning Inc., Corning, NY, cat. 354248) for the first three passages. The 354836-022-R-J1-PDC, 475296-252-R-J1-PDC, and 997726-040-R-J2-PDC lines were cultured in 6A media, which includes advanced DMEM/F-12 (Thermo Fisher Scientific, cat. 12634028), 10 mM HEPES (Thermo Fisher Scientific, cat. 15630080), 1X GlutaMAX supplement (Thermo Fisher Scientific, cat. 35050061), 0.1 mg/mL primocin (InvivoGen, San Diego, CA, cat. ant-pm-2), 10% defined fetal bovine serum, heat inactivated (HyClone Laboratories Inc., Logan, UT, cat. SH30070.03HI), 50% L-WRN conditioned media (ATCC, cat. CRL-3276), 1.25 mM N-Acetyl-L-cysteine (Sigma-Aldrich, cat. A9165), 10 mM nicotinamide (Sigma-Aldrich, cat. N0636), 1X B-27 supplement (Thermo Fisher Scientific, cat. 17504044), 1X N-2 supplement (Thermo Fisher Scientific, cat. 17502048), and 10 microM Y-27632 dihydrochloride (Tocris Bioscience, Bristol, United Kingdom, cat. 1254). The 624824-186-R-J2-PDC line was cultured in 6C/Colon 1B media, which includes all 6A media components plus 50 ng/mL human EGF recombinant protein (Thermo Fisher Scientific, cat. PHG0311). […]
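Further: spheroids exposed to compounds for seven days before viability read.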
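Wherever viability, T/C is given: luminescence used as a proxy for viable cell amount; percent viability relative to DMSO vehicle control as 100%.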

CC(Cn1ccc(-c2ccc(C#N)c(Cl)c2)n1)NC(=O)c1cc(C(C)O)[nH]n1 (configuration not stated)
viability, T/C (compound 0.0316 µM): 98.8% [middle of 4 runs] | viability, T/C (compound 0.1 µM): 104% (2×) and 86.4% and 92.5% | viability, T/C (compound 0.316 µM): 86.8% and 108% (2×) and 113% | viability, T/C (compound 1 µM): 108% [middle of 4 runs] | viability, T/C (compound 3.16 µM): 97.8% [middle of 4 runs] | viability, T/C (compound 10 µM): 101% [middle of 4 runs] | IC50 (curve of compound): > 10 µM

Reference: PubChem BioAssay AID1963965 (Molecular Pharmacology Branch, DTP, NCI, 2024)
